The first test addresses human Nav 1.8 (Homo sapiens, UniProt Q9Y5Y9). Kind of test: E-VIPR assay detecting and measuring Nav inhibition (HEK cells expressing truncated human Nav 1.8). The conditions noted are these: in the Absence of Human Serum in the E-VIPR Assay. The test is classed as cell-based. The source says: Sodium ion channels are voltage-dependent proteins that can be activated by inducing membrane voltage changes by applying electric fields. The electrical stimulation instrument and methods of use, referred to as E-VIPR, are described in International Publication No. WO 2002/008748 A3 and C.-J. Huang et al. Characterization of voltage-gated sodium channel blockers by electrical stimulation and fluorescence detection of membrane potential, 24 Nature Biotech. 439-46 (2006), both of which are incorporated by reference in their entirety. The instrument comprises a microtiter plate handler, an optical system for exciting the coumarin dye while simultaneously recording the coumarin and oxonol emissions, a waveform generator, a current- or voltage-controlled amplifier, and parallel electrode pairs that are inserted into assay plate wells. Under integrated computer control, this instrument passes user-programmed electrical stimulus protocols to cells within the wells of the microtiter plate.
16-20 hours prior to running the assay on E-VIPR, HEK cells expressing a truncated form of human Nav 1.8 with full channel activity were seeded into microtiter 384-well plates, pre-coated with matrigel, at a density of 25,000 cells per well. 2.5-5% KIR2.1 Bacmam virus was added to the final cell suspension before seeding into cell plates. HEK cells were grown in Dulbecco's Modified Eagle's Medium (DMEM) supplemented with 10% FBS (Fetal Bovine Serum, qualified; Sigma #F4135), 1% NEAA (Non-Essential Amino Acids, Gibco #11140), 1% HEPES (Gibco #15630), 1% Pen-Strep (Penicillin-Streptomycin; Gibco #15140) and 5 μg/ml Blasticidin (Gibco #R210-01). Cells were expanded in vented cap cell culture flasks, with 90-95% humidity and 5% CO2.
Human Serum (HS, Millipore #S1P1-01KL, or Sigma SLBR5469V and SLBR5470V as a 50%/50% mixture, for 25% assay final concentration)
Bath1 Buffer: • Sodium Chloride 160 mM (9.35 g/L), Potassium Chloride, 4.5 mM (0.335 g/L), Glucose 10 mM (1.8 g/L), Magnesium Chloride (Anhydrous) 1 mM (0.095 g/L), Calcium Chloride 2 mM (0.222 g/L), HEPES 10 mM (2.38 g/L) in water.
Na/TMA Cl Bath1 Buffer: • Sodium Chloride 96 mM (5.61 g/L), Potassium Chloride 4.5 mM (0.335 g/L), Tetramethylammonium (TMA)-Cl 64 mM (7.01 g/L), Glucose 10 mM (1.8 g/L), Magnesium Chloride (Anhydrous) 1 mM (0.095 g/L), Calcium Chloride 2 mM (0.222 g/L) HEPES 10 mM (2.38 g/L) in water.
Hexyl Dye Solution (2× concentration): • Bath1 Buffer containing 0.5% β-cyclodextrin (made fresh prior to each use, Sigma #C4767), 8 μM CC2-DMPE and 2 μM DiSBAC6(3). The solution was made by adding 10% Pluronic F127 stock equal to combined volumes of CC2-DMPE and DiSBAC6(3). The order of preparation was first mix Pluronic and CC2-DMPE, then add DiSBAC6(3), then while vortexing add Bath1/β-Cyclodextrin.
Compound Loading Buffer (2×concentration): Na/TMA Cl Bath1 Buffer containing HS (omitted in experiments run in the absence of human serum (HS)) 50%, VABSC-1 1 mM, BSA 0.2 mg/ml (in Bath-1), KCl 9 mM, DMSO 0.75%.
Assay Protocol (7 Key Steps): • 1) To reach the final concentration in each well, 400 nL of each compound was pre-spotted (in neat DMSO) into polypropylene compound plates at 250×desired final concentration from an intermediate stock concentration of 0.075 mM, in an 11 point dose response, 3-fold dilution, resulting in a top dose of 300 nM final concentration in the cell plate. Vehicle control (neat DMSO), and positive control (an established Nav1.8 inhibitor, 25 μM final in assay in DMSO) were added manually to the outermost columns of each plate respectively. The compound plate was backfilled with 45 μL per well of Compound Loading Buffer resulting in a 250 fold dilution of compound following a 1:1 transfer of compound into the cell plate (see Step 6). Final DMSO concentration for all wells in the assay was 0.625% (0.75% DMSO was supplemented to the Compound Loading Buffer for a final DMSO concentration of 0.625%). […]
human Nav 1.8, sequence (Q9Y5Y9 whole entry, looked up, the tested form may be a part): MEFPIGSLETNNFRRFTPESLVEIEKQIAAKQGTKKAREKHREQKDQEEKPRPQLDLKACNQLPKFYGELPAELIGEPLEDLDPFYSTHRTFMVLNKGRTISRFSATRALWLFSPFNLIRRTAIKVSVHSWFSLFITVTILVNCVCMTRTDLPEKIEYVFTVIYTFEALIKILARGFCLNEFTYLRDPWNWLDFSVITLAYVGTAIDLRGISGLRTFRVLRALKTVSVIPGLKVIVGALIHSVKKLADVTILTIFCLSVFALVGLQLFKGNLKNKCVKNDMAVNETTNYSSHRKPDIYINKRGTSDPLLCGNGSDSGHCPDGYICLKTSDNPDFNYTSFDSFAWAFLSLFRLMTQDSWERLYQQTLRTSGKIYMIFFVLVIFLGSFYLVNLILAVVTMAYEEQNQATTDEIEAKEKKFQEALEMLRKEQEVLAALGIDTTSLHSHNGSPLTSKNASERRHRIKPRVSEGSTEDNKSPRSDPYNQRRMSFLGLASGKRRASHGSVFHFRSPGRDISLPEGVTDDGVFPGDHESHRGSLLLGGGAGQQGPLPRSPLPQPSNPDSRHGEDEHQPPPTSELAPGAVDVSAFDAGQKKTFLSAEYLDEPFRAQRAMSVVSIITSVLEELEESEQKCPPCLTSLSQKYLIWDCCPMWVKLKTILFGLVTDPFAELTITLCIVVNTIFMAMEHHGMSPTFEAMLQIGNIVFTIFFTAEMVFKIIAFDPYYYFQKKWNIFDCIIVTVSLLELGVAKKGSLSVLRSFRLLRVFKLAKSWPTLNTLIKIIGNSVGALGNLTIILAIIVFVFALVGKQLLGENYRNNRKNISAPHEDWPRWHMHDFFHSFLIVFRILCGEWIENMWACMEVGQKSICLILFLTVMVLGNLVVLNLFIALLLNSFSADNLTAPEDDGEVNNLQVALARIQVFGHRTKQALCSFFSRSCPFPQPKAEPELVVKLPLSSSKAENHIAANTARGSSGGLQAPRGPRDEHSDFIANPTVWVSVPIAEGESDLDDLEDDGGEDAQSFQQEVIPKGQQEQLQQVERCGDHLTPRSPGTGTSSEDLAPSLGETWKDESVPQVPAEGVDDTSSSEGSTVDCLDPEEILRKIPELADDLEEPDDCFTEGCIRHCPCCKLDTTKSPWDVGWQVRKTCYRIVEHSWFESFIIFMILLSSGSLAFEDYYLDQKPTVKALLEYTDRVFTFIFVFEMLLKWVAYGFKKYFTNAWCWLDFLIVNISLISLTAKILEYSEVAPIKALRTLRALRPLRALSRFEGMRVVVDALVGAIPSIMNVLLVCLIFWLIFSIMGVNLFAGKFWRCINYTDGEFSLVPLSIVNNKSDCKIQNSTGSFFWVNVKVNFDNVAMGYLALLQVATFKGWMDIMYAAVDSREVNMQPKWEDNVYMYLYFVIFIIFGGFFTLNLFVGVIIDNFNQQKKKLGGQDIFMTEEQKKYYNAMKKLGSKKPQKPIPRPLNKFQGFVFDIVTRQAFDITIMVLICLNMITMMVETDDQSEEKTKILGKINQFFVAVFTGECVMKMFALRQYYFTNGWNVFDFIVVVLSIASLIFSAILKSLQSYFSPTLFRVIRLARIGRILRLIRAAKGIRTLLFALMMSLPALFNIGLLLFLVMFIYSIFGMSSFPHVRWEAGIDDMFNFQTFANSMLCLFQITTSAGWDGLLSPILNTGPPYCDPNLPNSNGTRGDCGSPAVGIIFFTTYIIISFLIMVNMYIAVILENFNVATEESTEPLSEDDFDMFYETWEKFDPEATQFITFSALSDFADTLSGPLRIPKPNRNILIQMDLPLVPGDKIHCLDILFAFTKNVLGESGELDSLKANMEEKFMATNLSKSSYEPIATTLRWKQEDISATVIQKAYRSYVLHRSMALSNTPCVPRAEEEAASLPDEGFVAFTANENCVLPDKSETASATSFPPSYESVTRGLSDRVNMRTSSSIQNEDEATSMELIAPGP
In turn, `[2H]c1c(NC(=O)[C@@H]2O[C@@](C)(C(F)(F)F)[C@@H](C)[C@H]2c2ccc(F)c(F)c2OC)ccnc1C(N)=O` [Compound 129, 3-deuterio-4-[[(2R,3S,4S,5R)-3-(3,4-difluoro-2-methoxy-phenyl)-4,5-dimethyl-5-(trifluoromethyl)tetrahydrofuran-2-carbonyl]amino]pyridine-2-carboxamide] registered an IC50 below 10 nM.

The compound `COc1c([C@@H]2[C@@H](C)[C@](C)(C(F)(F)F)O[C@H]2C(=O)Nc2ccnc(C(N)=O)c2)ccc(F)c1F` [Compound 50, 4-[[(2R,3S,4R,5R)-3-(3,4-difluoro-2-methoxy-phenyl)-4,5-dimethyl-5-(trifluoromethyl)tetrahydrofuran-2-carbonyl]amino]pyridine-2-carboxamide] came in with an IC50 of 10 to 100 nM.

The test is the same for the next values; noted with them: in the Absence of Human Serum in the E-VIPR Assay; read-out: IC50.
As for `COc1c([C@H]2[C@H](C(=O)Nc3cncc(C(N)=O)n3)O[C@@](C)(C(F)(F)F)[C@H]2C)ccc(F)c1F` [Compound 117, 6-[[(2R,3S,4S,5R)-3-(3,4-difluoro-2-methoxy-phenyl)-4,5-dimethyl-5-(trifluoromethyl)tetrahydrofuran-2-carbonyl]amino]pyrazine-2-carboxamide], the IC50 was in the range of 10 to 100 nM.

Consider `Cc1c([C@@H]2[C@@H](C(=O)Nc3ccnc(C(N)=O)c3)O[C@](C)(C(F)(F)F)[C@@H]2C)ccc(F)c1F` (stereo in doubt) [Compound 131, rel-(2S,3R,4R,5S)-4-[[3-(3,4-difluoro-2-methyl-phenyl)-4,5-dimethyl-5-(trifluoromethyl)tetrahydrofuran-2-carbonyl]amino]pyridine-2-carboxamide], for which the IC50 was above 1000 nM.

Turning to `Cc1c([C@H]2[C@H](C(=O)Nc3ccnc(C(N)=O)c3)O[C@@](C)(C(F)(F)F)[C@H]2C)ccc(F)c1F` (stereo in doubt) [Compound 132, rel-(2R,3S,4S,5R)-4-[[3-(3,4-difluoro-2-methyl-phenyl)-4,5-dimethyl-5-(trifluoromethyl)tetrahydrofuran-2-carbonyl]amino]pyridine-2-carboxamide], the half-maximal inhibitory concentration (IC50) was below 10 nM.

Still in this test, the particulars now being: in the Presence of Human Serum in the E-VIPR Assay; read-out: IC50.
For the compound `COc1c([C@@H]2[C@H](C)[C@H](C(C)C)O[C@H]2C(=O)Nc2ccnc(C(N)=O)c2)ccc(F)c1F` [Compound 113, 4-[[(2R,3S,4S,5S)-3-(3,4-difluoro-2-methoxy-phenyl)-5-isopropyl-4-methyl-tetrahydrofuran-2-carbonyl]amino]pyridine-2-carboxamide], the IC50 lay within 10 to 100 nM.

Turning to `COc1c([C@H]2[C@H](C(=O)Nc3cc[n+]([O-])c(C(N)=O)c3)O[C@@](C)(C(F)(F)F)[C@H]2C)ccc(F)c1F` [Compound 19, (2R,3S,4S,5R)-4-[[3-(3,4-difluoro-2-methoxy-phenyl)-4,5-dimethyl-5-(trifluoromethyl)tetrahydrofuran-2-carbonyl]amino]-1-oxido-pyridin-1-ium-2-carboxamide], the half-inhibitory concentration (IC50) was below 10 nM.

Turning to `C[C@H]1[C@@H](c2ccc(F)c(F)c2OC(F)F)[C@H](C(=O)Nc2ccc(F)c(C(N)=O)c2)O[C@@]1(C)C(F)(F)F` (single isomer, unassigned) [Compound 14], the 50% inhibitory concentration (IC50) was above 1000 nM.

In the case of `C[C@@H]1[C@H](c2ccc(F)cc2OC(F)F)[C@@H](C(=O)Nc2ccnc(C(N)=O)c2)O[C@]1(C)C(F)(F)F` (stereo in doubt) [Compound 1, rel-(2S,3R,4R,5S)-4-[[3-[2-(difluoromethoxy)-4-fluoro-phenyl]-4,5-dimethyl-5-(trifluoromethyl)tetrahydrofuran-2-carbonyl]amino]pyridine-2-carboxamide], the 50% inhibitory concentration (IC50) fell in the range of 10 to 100 nM.

Consider `COc1c([C@@H]2[C@@H](C(=O)Nc3ccnc(C(N)=O)c3)O[C@](C)(C(F)(F)F)[C@@H]2C2CC2)ccc(F)c1F` (single isomer, unassigned) [Compound 94], for which the IC50 is below 10 nM.

On to `Cc1c(F)ccc([C@@H]2C[C@](C)(C(F)(F)F)O[C@H]2C(=O)Nc2ccnc(C(N)=O)c2)c1F` (single isomer, unassigned) [Compound 76], for which the IC50 was in the range of 100 to 1000 nM.

For the compound `CC(C)Oc1c([C@H]2[C@H](C(=O)Nc3ccnc(C(N)=O)c3)O[C@@](C)(C(F)(F)F)[C@H]2C)ccc(F)c1F` (single isomer, unassigned) [Compound 89], the IC50 is below 10 nM.

Regarding `COc1c([C@@H]2[C@@H](C(=O)Nc3ccnc(C(N)=O)c3)O[C@](C)(C(F)F)[C@@H]2C)ccc(F)c1F` (stereo in doubt) [Compound 98, rel-(2S,3R,4R,5S)-4-[[3-(3,4-difluoro-2-methoxy-phenyl)-5-(difluoromethyl)-4,5-dimethyl-tetrahydrofuran-2-carbonyl]amino]pyridine-2-carboxamide], the half-inhibitory concentration (IC50) is above 1000 nM.

Regarding `C[C@H]1[C@@H](c2ccc(F)c(F)c2OCC2CC(F)(F)C2)[C@H](C(=O)Nc2ccnc(C(N)=O)c2)O[C@@]1(C)C(F)(F)F` [Compound 146, 4-[[(2R,3S,4S,5R)-3-[2-[(3,3-difluorocyclobutyl)methoxy]-3,4-difluoro-phenyl]-4,5-dimethyl-5-(trifluoromethyl)tetrahydrofuran-2-carbonyl]amino]pyridine-2-carboxamide], the IC50 is 10 to 100 nM.

`COc1c([C@H]2[C@H](C(=O)Nc3ccnc(C(N)=O)c3)OC(C)(C)[C@H]2C)ccc(F)c1F` (single isomer, unassigned) [Compound 105]: the half-maximal inhibitory concentration (IC50) was in the range of 10 to 100 nM.

Consider `COc1cc(F)ccc1[C@@H]1[C@@H](C(=O)Nc2ccnc(C(N)=O)c2)O[C@](C)(C(F)(F)F)[C@@H]1C` (single isomer, unassigned) [Compound 3b], for which the IC50 was below 10 nM.

`[2H]C([2H])([2H])Oc1c([C@H]2[C@H](C(=O)Nc3cc[n+]([O-])c(C(N)=O)c3)O[C@@](C)(C(F)(F)F)[C@H]2C)ccc(F)c1F` [Compound 56, 4-[[(2R,3S,4S,5R)-3-[3,4-difluoro-2-(trideuteriomethoxy)phenyl]-4,5-dimethyl-5-(trifluoromethyl)tetrahydrofuran-2-carbonyl]amino]-1-oxido-pyridin-1-ium-2-carboxamide]: the half-inhibitory concentration (IC50) is below 10 nM.

Consider `COc1c([C@@H]2[C@@H](C)C(C)(C)O[C@H]2C(=O)Nc2ccnc(C(N)=O)c2)ccc(F)c1F` (single isomer, unassigned) [Compound 102], for which the IC50 was above 1000 nM.

For the compound `Cc1c(F)ccc([C@@H]2[C@@H](C(=O)Nc3ccnc(C(N)=O)c3)O[C@](C)(C(F)(F)F)[C@@H]2C)c1OC(F)F` (stereo in doubt) [compound 53], the half-maximal inhibitory concentration (IC50) was below 10 nM.

Turning to `CCc1c(F)ccc([C@H]2C[C@@](C)(C(F)(F)F)O[C@@H]2C(=O)Nc2ccnc(C(N)=O)c2)c1OC` (single isomer, unassigned) [Compound 77], the IC50 is above 1000 nM.

As to `CCOc1c([C@H]2[C@H](C(=O)Nc3cc[n+]([O-])c(C(N)=O)c3)O[C@@](C)(C(F)(F)F)[C@H]2C)ccc(F)c1F` [Compound 55, (2R,3S,4S,5R)-4-[[3-(2-ethoxy-3,4-difluoro-phenyl)-4,5-dimethyl-5-(trifluoromethyl)tetrahydrofuran-2-carbonyl]amino]-1-oxido-pyridin-1-ium-2-carboxamide], the IC50 was below 10 nM.

For the origin of these results see patent US11919887B2, “Substituted tetrahydrofurans as modulators of sodium channels” (Vertex Pharmaceuticals Incorporated, priority 2019, dated 2024).
